Test results reported in patent EP1247803A2, “Indolinone compounds suitable for modulation of protein kinases” (Sugen, Inc., priority 1996, dated 1998).

Experiments:
[1] = target: T1, EGFR (Homo sapiens, UniProt P00533); test: EGFR ELISA assay (in vitro kinase activity, EGFR captured from A431 cell lysate); format: biochemical; design: concentration or dose not given beside the values
T1 construct: Add 7 ug A431 cell lysate per well (EGFR source); endogenous in cells; host or cells: A431
In short: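 EGFR from A431 lysate was captured on anti-EGFR antibody-coated plates and preincubated with compounds for 30 min. Autophosphorylation ran 5 min with 3 uM ATP and 5 mM MnCl2 (final), stopped with 20 mM EDTA. Phosphotyrosine was detected by anti-pTyr ELISA with ABTS/H2O2, read at 410 nm.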

[2] = target: PDGF-R (Homo sapiens, UniProt P09619); test: PDGF-R ELISA; format: cell-based
Source text: A PDGF-R ELISA is described in International Patent Publication No. WO 96/40116, published December 19, 1996 by Tang et al.

PDGF-R, sequence (P09619 33-1106, species assumed): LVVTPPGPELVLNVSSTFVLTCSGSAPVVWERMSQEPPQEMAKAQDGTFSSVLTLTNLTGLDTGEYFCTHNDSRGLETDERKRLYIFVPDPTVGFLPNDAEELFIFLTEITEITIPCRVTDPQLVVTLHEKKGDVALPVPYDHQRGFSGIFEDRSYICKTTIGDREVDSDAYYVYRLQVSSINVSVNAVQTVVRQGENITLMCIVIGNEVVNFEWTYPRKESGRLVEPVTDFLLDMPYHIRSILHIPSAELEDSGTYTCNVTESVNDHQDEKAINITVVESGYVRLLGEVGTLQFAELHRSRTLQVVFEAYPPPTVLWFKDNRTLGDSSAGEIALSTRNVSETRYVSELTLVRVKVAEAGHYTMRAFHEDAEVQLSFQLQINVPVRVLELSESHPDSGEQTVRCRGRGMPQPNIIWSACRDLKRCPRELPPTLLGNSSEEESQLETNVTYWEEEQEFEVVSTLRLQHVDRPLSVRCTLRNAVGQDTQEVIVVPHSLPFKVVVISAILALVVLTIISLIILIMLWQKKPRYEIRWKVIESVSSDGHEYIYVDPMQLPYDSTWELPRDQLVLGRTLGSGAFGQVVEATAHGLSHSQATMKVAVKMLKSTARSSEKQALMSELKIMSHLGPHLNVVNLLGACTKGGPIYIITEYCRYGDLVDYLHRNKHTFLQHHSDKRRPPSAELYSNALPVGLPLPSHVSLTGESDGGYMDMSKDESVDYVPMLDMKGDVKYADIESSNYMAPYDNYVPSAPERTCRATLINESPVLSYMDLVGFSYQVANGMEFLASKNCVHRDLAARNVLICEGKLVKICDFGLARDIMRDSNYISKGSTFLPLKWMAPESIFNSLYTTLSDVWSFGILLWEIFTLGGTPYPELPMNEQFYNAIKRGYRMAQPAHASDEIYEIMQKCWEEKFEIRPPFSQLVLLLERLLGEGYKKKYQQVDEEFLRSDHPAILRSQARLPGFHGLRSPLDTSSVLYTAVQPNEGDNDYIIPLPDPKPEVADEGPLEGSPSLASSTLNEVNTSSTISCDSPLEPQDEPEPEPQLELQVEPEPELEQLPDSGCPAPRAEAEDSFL
T1 sequence (P00533 25-1210): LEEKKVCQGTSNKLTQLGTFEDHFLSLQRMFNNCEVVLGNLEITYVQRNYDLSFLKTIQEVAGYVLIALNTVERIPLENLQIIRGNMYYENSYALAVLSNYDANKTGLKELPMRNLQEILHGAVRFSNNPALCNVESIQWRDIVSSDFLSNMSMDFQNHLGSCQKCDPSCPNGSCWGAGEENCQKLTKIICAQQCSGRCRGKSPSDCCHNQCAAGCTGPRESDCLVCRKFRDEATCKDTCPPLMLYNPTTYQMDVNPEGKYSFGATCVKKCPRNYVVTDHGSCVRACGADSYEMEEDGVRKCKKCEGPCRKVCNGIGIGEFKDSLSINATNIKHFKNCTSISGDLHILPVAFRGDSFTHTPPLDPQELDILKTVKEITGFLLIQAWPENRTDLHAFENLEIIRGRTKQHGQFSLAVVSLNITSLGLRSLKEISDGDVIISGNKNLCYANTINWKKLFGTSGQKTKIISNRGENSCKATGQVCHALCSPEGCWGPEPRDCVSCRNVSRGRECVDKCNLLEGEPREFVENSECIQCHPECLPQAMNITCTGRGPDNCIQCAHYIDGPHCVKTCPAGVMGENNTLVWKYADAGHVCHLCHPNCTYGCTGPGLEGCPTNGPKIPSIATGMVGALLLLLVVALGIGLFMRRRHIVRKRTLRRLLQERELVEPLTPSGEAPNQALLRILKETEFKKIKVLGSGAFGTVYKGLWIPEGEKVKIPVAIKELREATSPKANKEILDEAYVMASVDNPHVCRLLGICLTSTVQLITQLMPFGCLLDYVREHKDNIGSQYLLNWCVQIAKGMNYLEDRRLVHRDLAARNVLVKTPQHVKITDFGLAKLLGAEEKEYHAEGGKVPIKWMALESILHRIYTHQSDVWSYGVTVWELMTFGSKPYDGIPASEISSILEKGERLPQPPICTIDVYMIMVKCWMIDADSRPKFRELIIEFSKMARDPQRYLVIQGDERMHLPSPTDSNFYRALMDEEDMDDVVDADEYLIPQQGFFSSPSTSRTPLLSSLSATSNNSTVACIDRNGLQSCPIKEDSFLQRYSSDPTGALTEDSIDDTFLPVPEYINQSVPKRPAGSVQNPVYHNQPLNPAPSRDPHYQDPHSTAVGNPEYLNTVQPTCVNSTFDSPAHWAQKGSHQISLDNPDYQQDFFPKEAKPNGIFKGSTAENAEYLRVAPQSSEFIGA

SMILES	Biochem EGFR %Inhibition [1]	PDGF Kinase %Inhibition [2]
CCOc1ccccc1C=C1C(=O)Nc2ccc(I)cc21 [10717/B02]	31.7%	–
O=C1Nc2ccc(I)cc2C1=Cc1cccs1 [10717/B03]	7.3%	–
Cn1cccc1C=C1C(=O)Nc2ccc(I)cc21 [10717/B04]	10.3%	–
O=C1Nc2ccc(I)cc2C1=Cc1ccc(F)cc1 [10717/B05]	31.7%	–
O=C1Nc2ccc(I)cc2C1=Cc1c[nH]c2ccccc12 [10717/B06]	-30.8%	–
CCOC(=O)c1c(C)[nH]c(C=C2C(=O)Nc3ccc(S(=O)(=O)N4CCOCC4)cc32)c1C [10718/F02]	17.8%	–
COc1cc(Br)c(O)c(C=C2C(=O)Nc3ccc(S(=O)(=O)N4CCOCC4)cc32)c1 [10718/F03]	22.5%	–
O=C1Nc2ccc(S(=O)(=O)N3CCOCC3)cc2C1=Cc1ccc2ccccc2c1O [10718/F04]	1.2%	–
CCOC(=O)CCc1c(C(=O)OCC)[nH]c(C=C2C(=O)Nc3ccc(S(=O)(=O)N4CCOCC4)cc32)c1CC(=O)OCC [10718/F05]	-4.9%	–
CCOC(=O)c1cc(C=C2C(=O)Nc3ccc(S(=O)(=O)N4CCOCC4)cc32)oc1C [10718/F06]	-9.1%	–
COC(=O)c1[nH]c(C)c(C=C2C(=O)Nc3ccc(S(=O)(=O)N4CCOCC4)cc32)c1C(=O)OC [10718/F07]	-6.3%	–
O=C1Nc2ccc(S(=O)(=O)N3CCOCC3)cc2C1=Cc1ccc(Cl)c([N+](=O)[O-])c1 [10718/F08]	-8.7%	–
Cc1c(O)ccc(C=C2C(=O)Nc3ccc(S(=O)(=O)N4CCOCC4)cc32)c1O [10718/F09]	-9.5%	–
O=C1Nc2ccc(S(=O)(=O)N3CCOCC3)cc2C1=Cc1ccco1 [10718/F10]	-12.0%	–
O=C1Nc2ccc(S(=O)(=O)N3CCOCC3)cc2C1=Cc1ccc([N+](=O)[O-])o1 [10718/F11]	-3.9%	–
CCOC(=O)c1c(C)[nH]c(C=C2C(=O)Nc3ccc(CCCl)cc32)c1C [10718/G02]	49.2%	–
COc1cc(Br)c(O)c(C=C2C(=O)Nc3ccc(CCCl)cc32)c1 [10718/G03]	57.3%	–
O=C1Nc2ccc(CCCl)cc2C1=Cc1ccc2ccccc2c1O [10718/G04]	15.8%	–
CCOC(=O)CCc1c(C(=O)OCC)[nH]c(C=C2C(=O)Nc3ccc(CCCl)cc32)c1CC(=O)OCC [10718/G05]	2.8%	–
CCOC(=O)c1cc(C=C2C(=O)Nc3ccc(CCCl)cc32)oc1C [10718/G06]	-18.7%	–
COC(=O)c1[nH]c(C)c(C=C2C(=O)Nc3ccc(CCCl)cc32)c1C(=O)OC [10718/G07]	-21.3%	–
O=C1Nc2ccc(CCCl)cc2C1=Cc1ccc(Cl)c([N+](=O)[O-])c1 [10718/G08]	-8.3%	–
Cc1c(O)ccc(C=C2C(=O)Nc3ccc(CCCl)cc32)c1O [10718/G09]	-15.4%	–
O=C1Nc2ccc(CCCl)cc2C1=Cc1ccco1 [10718/G10]	-7.5%	–

SMILES	Biochem EGFR %Inhibition [1]	PDGF Kinase %Inhibition [2]
O=C1Nc2ccc(CCCl)cc2C1=Cc1ccc([N+](=O)[O-])o1 [10718/G11]	-4.9%	–
CCOc1ccc(C=C2C(=O)Nc3c(Br)cc(Br)cc32)cc1OC [10719/A02]	43.0%	–
O=C1Nc2c(Br)cc(Br)cc2C1=Cc1ccc(O)c(O)c1 [10719/A03]	67.7%	–
COc1ccc(C=C2C(=O)Nc3c(Br)cc(Br)cc32)c(OC)c1 [10719/A04]	43.7%	–
CCc1c(C)[nH]c(C=C2C(=O)Nc3c(Br)cc(Br)cc32)c1C [10719/A05]	23.1%	–
COc1cc(OC)c(C=C2C(=O)Nc3c(Br)cc(Br)cc32)c(OC)c1 [10719/A06]	18.2%	–
O=C1Nc2c(Br)cc(Br)cc2C1=Cc1ccc(O)cc1 [10719/A07]	15.5%	–
CN(C)c1ccc(C=C2C(=O)Nc3c(Br)cc(Br)cc32)cc1 [10719/A08]	47.3%	–
O=C1Nc2c(Br)cc(Br)cc2C1=Cc1ccc(F)cc1Cl [10719/A09]	2.2%	–
O=C1Nc2c(Br)cc(Br)cc2C1=Cc1cccc([N+](=O)[O-])c1 [10719/A10]	8.2%	–
O=C1Nc2c(Br)cc(Br)cc2C1=Cc1ccc(F)cc1C(F)(F)F [10719/A11]	10.5%	–
CCOc1ccc(C=C2C(=O)Nc3ccc(I)cc32)cc1OC [10719/B02]	29.0%	–
O=C1Nc2ccc(I)cc2C1=Cc1ccc(O)c(O)c1 [10719/B03]	59.5%	–
COc1ccc(C=C2C(=O)Nc3ccc(I)cc32)c(OC)c1 [10719/B04]	29.9%	–
CCc1c(C)[nH]c(C=C2C(=O)Nc3ccc(I)cc32)c1C [10719/B05]	35.9%	–
COc1cc(OC)c(C=C2C(=O)Nc3ccc(I)cc32)c(OC)c1 [10719/B06]	-0.5%	–
O=C1Nc2ccc(I)cc2C1=Cc1ccc(O)cc1 [10719/B07]	23.7%	–
CN(C)c1ccc(C=C2C(=O)Nc3ccc(I)cc32)cc1 [10719/B08]	42.3%	–
O=C1Nc2ccc(I)cc2C1=Cc1ccc(F)cc1Cl [10719/B09]	-17.7%	–
O=C1Nc2ccc(I)cc2C1=Cc1cccc([N+](=O)[O-])c1 [10719/B10]	-1.2%	–
O=C1Nc2ccc(I)cc2C1=Cc1ccc(F)cc1C(F)(F)F [10719/B11]	-23.9%	–
CCOc1ccc(C=C2C(=O)Nc3ccc(Br)c(C)c32)cc1OC [10719/C02]	10.2%	–
Cc1c(Br)ccc2c1C(=Cc1ccc(O)c(O)c1)C(=O)N2 [10719/C03]	60.6%	–
COc1ccc(C=C2C(=O)Nc3ccc(Br)c(C)c32)c(OC)c1 [10719/C04]	14.4%	–

SMILES	Biochem EGFR %Inhibition [1]	PDGF Kinase %Inhibition [2]
CCc1c(C)[nH]c(C=C2C(=O)Nc3ccc(Br)c(C)c32)c1C [10719/C05]	27.4%	–
COc1cc(OC)c(C=C2C(=O)Nc3ccc(Br)c(C)c32)c(OC)c1 [10719/C06]	-14.3%	–
Cc1c(Br)ccc2c1C(=Cc1ccc(O)cc1)C(=O)N2 [10719/C07]	14.4%	–
Cc1c(Br)ccc2c1C(=Cc1ccc(N(C)C)cc1)C(=O)N2 [10719/C08]	-10.2%	–
Cc1c(Br)ccc2c1C(=Cc1ccc(F)cc1Cl)C(=O)N2 [10719/C09]	-0.1%	–
O=C1Nc2ccc(S(=O)(=O)Nc3ccc(C(F)(F)F)cc3)cc2C1=Cc1cc(Cl)ccc1O [10734/E04]	-7.8%	26.7%
CCN(CC)c1ccc(C=C2C(=O)Nc3ccc(S(=O)(=O)Nc4ccc(C(F)(F)F)cc4)cc32)c(O)c1 [10734/E05]	7.9%	17.9%
O=C1Nc2ccc(S(=O)(=O)Nc3ccc(C(F)(F)F)cc3)cc2C1=Cc1ccc([N+](=O)[O-])cc1 [10734/E06]	6.3%	13.5%
O=C1Nc2ccc(S(=O)(=O)Nc3ccc(C(F)(F)F)cc3)cc2C1=Cc1cc(Br)cc(Br)c1O [10734/E07]	82.4%	8.2%
O=C1Nc2ccc(S(=O)(=O)Nc3ccc(C(F)(F)F)cc3)cc2C1=Cc1cccc(F)c1O [10734/E08]	24.2%	13.0%
O=C1Nc2ccc(S(=O)(=O)Nc3ccc(C(F)(F)F)cc3)cc2C1=Cc1ccc(O)c(Br)c1 [10734/E09]	73.0%	1.1%
CC(C)(C)c1ccc(C=C2C(=O)Nc3ccc(S(=O)(=O)Nc4ccc(C(F)(F)F)cc4)cc32)cc1 [10734/E10]	-5.0%	29.8%
O=C1Nc2ccc(S(=O)(=O)Nc3ccc(C(F)(F)F)cc3)cc2C1=Cc1ccc(Br)s1 [10734/E11]	-8.0%	16.1%
CCOc1cccc(C=C2C(=O)Nc3ccc(S(=O)(=O)N4CCOCC4)cc32)c1O [10734/F02]	0.7%	10.4%
O=C1Nc2ccc(S(=O)(=O)N3CCOCC3)cc2C1=Cc1cc(Cl)cc(Cl)c1O [10734/F03]	24.8%	-24.1%
O=C1Nc2ccc(S(=O)(=O)N3CCOCC3)cc2C1=Cc1cc(Cl)ccc1O [10734/F04]	3.9%	25.0%
CCN(CC)c1ccc(C=C2C(=O)Nc3ccc(S(=O)(=O)N4CCOCC4)cc32)c(O)c1 [10734/F05]	-15.6%	-1.1%
O=C1Nc2ccc(S(=O)(=O)N3CCOCC3)cc2C1=Cc1ccc([N+](=O)[O-])cc1 [10734/F06]	-17.1%	-21.4%
O=C1Nc2ccc(S(=O)(=O)N3CCOCC3)cc2C1=Cc1cc(Br)cc(Br)c1O [10734/F07]	33.7%	-5.1%
O=C1Nc2ccc(S(=O)(=O)N3CCOCC3)cc2C1=Cc1cccc(F)c1O [10734/F08]	-23.6%	-6.0%
O=C1Nc2ccc(S(=O)(=O)N3CCOCC3)cc2C1=Cc1ccc(O)c(Br)c1 [10734/F09]	3.1%	-17.4%
CC(C)(C)c1ccc(C=C2C(=O)Nc3ccc(S(=O)(=O)N4CCOCC4)cc32)cc1 [10734/F10]	-8.3%	25.8%
CCOc1cccc(C=C2C(=O)Nc3ccc(CCCl)cc32)c1O [10734/G02]	3.4%	14.8%
O=C1Nc2ccc(CCCl)cc2C1=Cc1cc(Cl)cc(Cl)c1O [10734/G03]	82.8%	-3.8%
